Reference: patent US20040009973A1, “Novel potassium channels modulators” (4SC AG, priority 2002, published 2004)

Biological target: T1, BK potassium channel, cloned hSlo (α-hSlo and β-bSlo) in CHO cells (Homo sapiens, UniProt Q12791)
T1 construct: expressed in transfected cells; host or cells: CHO cells, permanently transfected
Experiment: Em-Assay: membrane potential with voltage sensitive dye DiBAC(4)3, fluorescence plate reader
Assay type: cell-based
Conditions: compound 50 μM; NS004 25 or 50 μM; hSlo transfected CHO cells; change in DiBAC(4)3 fluorescence intensity
Source text: The large conductance, voltage-dependent and Ca^2+-activated potassium channel BK is a potassium selective ion channel and belongs to the subfamily of KCa channels. Four BK alpha-subunits form a functional channel that can be regulated by intracellular Ca^2+ concentration, membrane voltage, and other mechanisms like phosphorylation states or beta subunits. To test the biological activity of the compounds, we applied two different techniques, a fluorescence based assay using a voltage sensitive dye (Em-Assay) as well as exploiting electrophysiological methods.
CHO cells permanently transfected with cloned hSlo (α-hSlo and β-bSlo), yielding typical BK potassium currents (Zhou et al., Pflügers Arch., 436: 725-734 (1998), were used for the evaluation of compound activity. Activation or inhibition of BK channels in these cells leads to a change of the electrochemical gradient causing a hyperpolarized or depolarised membrane potential, respectively.
To determine changes in the membrane potential of the cells we used the voltage sensitive dye DiBAC(4)3 (Molecular Probes) in a kinetic assay system using a fluorescent plate reader (Manning and Sontheimer, J. Neurosci, Meth., 91: 73-81 (1999). The anionic bis-oxonol DiBAC(4)3 is a voltage sensitive dye which partitions from the extracellular environment into the cell where it reversibly binds to intracellular proteins, a kinetic process depending on the membrane potential of the cell. At depolarised potentials (i.e. at a reduced K^+ efflux due to blocked K^+ channels) the dye accumulates in the cell leading to an increased fluorescence intensity, due to its increased fluorescence if bound to cellular proteins. At hyperpolarized potentials (i.e. at an increased K^+ efflux due to the opening of K^+ channels), the dye partitions out of the cell causing a decreased fluorescence intensity.
hSlo transfected CHO cells where maintained in DMEM supplemented with 10% FCS, 250 μg/ml Geneticin, 100 μg/ml Hygromycin, 1×HT-Supplement, and 1×Non-essential Amino Acids and cultured in a humidified CO2 incubator. After trypsination, cells where plated with a density of 5×10^4 cells per well on a clear 96-well plate and incubated for 24 h. Cells where washed once with PBS, once with PBS containing 20 mM HEPES (adjusted to pH 7.4 with NaOH) and 2 μM DIBAC(4)3 (DPBS-DiBAC solution). 180 μl of the dPBS-DiBAC solution was then added to the cells and the plate incubated for 30-60 min at 37° C. During this time the dye could partition into the cells and reach a certain steady-state distribution, depending on the resting membrane potential. Test and reference compounds were stored as DMSO stock solutions and diluted in dPBS-DiBAC solution to the desired concentration.
Fluorescence intensity (Ex.: 485 nm/Em.: 520 nm) of each well was detected in the plate reader (Fluostar, BMG) every 60 seconds. After recording the baseline fluorescence for 7 minutes, 20 μl test—and reference compounds were added and the fluorescence intensity was detected for additional 15 minutes. Background was subtracted, data values were normalized and expressed as a change in fluorescence intensity against time. The change in fluorescence intensity caused by the test compounds was evaluated, compared to the effect of the reference compound NS004, and the ratio was determined (see Table I).

T1 sequence (Q12791 1-1178 isoform Q12791-5): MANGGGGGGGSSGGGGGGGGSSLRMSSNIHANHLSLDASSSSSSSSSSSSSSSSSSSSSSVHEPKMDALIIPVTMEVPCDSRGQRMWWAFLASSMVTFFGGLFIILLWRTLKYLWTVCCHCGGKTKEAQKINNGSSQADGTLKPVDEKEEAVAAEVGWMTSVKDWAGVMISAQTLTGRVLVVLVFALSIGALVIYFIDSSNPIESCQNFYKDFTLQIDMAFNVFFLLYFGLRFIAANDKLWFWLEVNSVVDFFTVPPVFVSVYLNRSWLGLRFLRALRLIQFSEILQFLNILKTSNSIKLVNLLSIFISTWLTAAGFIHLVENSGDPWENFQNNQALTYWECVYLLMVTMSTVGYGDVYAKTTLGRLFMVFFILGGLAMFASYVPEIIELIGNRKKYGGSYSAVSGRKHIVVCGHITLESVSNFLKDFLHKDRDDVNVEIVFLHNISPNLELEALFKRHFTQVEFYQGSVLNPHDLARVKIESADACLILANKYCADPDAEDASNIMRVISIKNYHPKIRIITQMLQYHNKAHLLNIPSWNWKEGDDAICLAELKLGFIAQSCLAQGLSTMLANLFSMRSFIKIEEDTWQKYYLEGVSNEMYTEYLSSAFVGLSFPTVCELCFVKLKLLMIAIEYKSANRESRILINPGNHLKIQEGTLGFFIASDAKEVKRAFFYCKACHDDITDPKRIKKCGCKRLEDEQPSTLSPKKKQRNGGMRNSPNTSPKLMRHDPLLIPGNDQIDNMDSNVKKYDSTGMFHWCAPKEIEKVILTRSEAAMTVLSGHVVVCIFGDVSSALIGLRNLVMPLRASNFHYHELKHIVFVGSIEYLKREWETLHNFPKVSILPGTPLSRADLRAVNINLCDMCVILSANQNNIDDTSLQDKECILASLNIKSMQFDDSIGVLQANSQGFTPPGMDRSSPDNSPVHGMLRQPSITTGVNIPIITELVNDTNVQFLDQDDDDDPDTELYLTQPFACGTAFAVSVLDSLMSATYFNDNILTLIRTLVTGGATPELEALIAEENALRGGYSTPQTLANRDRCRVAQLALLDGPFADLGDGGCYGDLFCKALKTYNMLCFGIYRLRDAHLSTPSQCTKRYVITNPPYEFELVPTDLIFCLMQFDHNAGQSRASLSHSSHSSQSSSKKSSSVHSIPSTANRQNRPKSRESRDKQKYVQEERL
T1 sequence (Q28067 2-191 partner limits assumed): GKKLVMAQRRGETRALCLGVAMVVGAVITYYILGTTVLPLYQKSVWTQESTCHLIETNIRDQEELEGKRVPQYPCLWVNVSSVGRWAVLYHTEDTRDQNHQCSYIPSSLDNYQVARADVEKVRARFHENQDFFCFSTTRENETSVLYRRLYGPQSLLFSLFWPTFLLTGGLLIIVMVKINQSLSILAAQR

| Compound | Em effect: ratio of the compound effect compared to the maximal effect of NS004 |
| --- | --- |
| Fc1cc(F)cc(CNc2cccc(NCc3ccc(-c4csnn4)cc3)c2)c1 [Compound 53, N-(3,5-difluorobenzyl)-N′-(4-[1,2,3]thiadiazol-4-yl-benzyl)-benzene-1,3-diamine] | + (0-1 = +) |
| Fc1cccc(Cl)c1CNc1ccc(NCc2c(F)cccc2Cl)cc1 [Compound 92] | + (0-1 = +) |
| FC(F)(F)c1ccc(CNc2ccc(NCc3ccc(C(F)(F)F)cc3)c(Cl)c2)cc1 [Compound 105] | + (0-1 = +) |
| c1ccc(CNc2cccc(NCc3ccccc3)c2)cc1 [Compound 9, N,N′-Dibenzylbenzene-1,3-diamine] | + (0-1 = +) |
| CC(C)(C)c1ccc(CNc2cc(NCc3csc4ccc(Cl)cc34)cc(C(F)(F)F)c2)cc1 [Compound 78] | + (0-1 = +) |
| FC(F)(F)c1cc(NCc2ccc(Br)cc2)cc(NCc2cccc(Cl)c2)c1 [Compound 5] | ++ (>1-1.5 = ++) |
| Cc1cc(NCc2ccc(-c3csnn3)cc2)ccc1NCc1ccc(-c2csnn2)cc1 [Compound 87] | + (0-1 = +) |
| FC(F)(F)c1ccc(CNc2cc(NCc3ccc(C(F)(F)F)cc3)cc(C(F)(F)F)c2)cc1 [Compound 70, 5-trifloromethyl-N,N′-bis-(4-trifluoromethylbenzyl)-benzene-1,3-diamine] | + (0-1 = +) |
| CC(C)(C)c1ccc(CNc2cccc(NCc3ccc(C(C)(C)C)cc3)c2)cc1 [Compound 36, N,N′-bis-(4-tert-butylbenzyl)-benzene-1,3-diamine] | ++ (>1-1.5 = ++) |
| Cc1cc(NCc2ccc(S(C)(=O)=O)cc2)ccc1NCc1ccc(S(C)(=O)=O)cc1 [Compound 86] | + (0-1 = +) |
| CS(=O)(=O)c1ccc(CNc2cccc(NCc3c(F)cccc3F)c2)cc1 [Compound 50, N-(2,6-difluorobenzyl)-N′-(4-methanesulfonylbenzyl)-benzene-1,3-diamine] | + (0-1 = +) |
| Cc1cc(NCc2ccc3ccccc3c2)ccc1NCc1ccc2ccccc2c1 [Compound 16] | + (0-1 = +) |
| COc1cccc(CNc2cccc(NCc3csc4ccc(Cl)cc34)c2)c1 [Compound 56, N-(5-chlorobenzo[b]thiophen-3-ylmethyl)-N′-(3-methoxybenzyl)-benzene-1,3diamine] | + (0-1 = +) |

Next, values leading:

| Em effect: ratio of the compound effect compared to the maximal effect of NS004 | Compound |
| --- | --- |
| + (0-1 = +) | Fc1cccc(CNc2cccc(NCc3ccccc3Cl)c2)c1 [Compound 48] |
| + (0-1 = +) | Cc1cc(NCc2ccc(F)cc2F)ccc1NCc1ccc(F)cc1F [Compound 102, N^1,N^4-bis-(2,4-difluorobenzyl)-2-methylbenzene-1,4-diamine] |
| + (0-1 = +) | Fc1ccc(CNc2cccc(NCc3ccc(-c4csnn4)cc3)c2)c(F)c1 [Compound 52, N-(2,4-difluorobenzyl)-N′-(4-[1,2,3]thiadiazol-4-yl-benzyl)-benzene-1,3-diamine] |
| + (0-1 = +) | Fc1cccc(Cl)c1CNc1cccc(NCc2c(F)cccc2Cl)c1 [Compound 29] |
| + (0-1 = +) | O=[N+]([O-])c1ccc(CNc2cccc(NCc3ccc(F)cc3F)c2)o1 [Compound 54, N-(2,4-difluorobenzyl)-N′-(5-nitrofuran-2-ylmethyl)-benzene1,3-diamine] |
| + (0-1 = +) | Fc1ccc(CNc2ccc(NCc3ccc(F)cc3F)cc2)c(F)c1 [Compound 99] |
| ++ (>1-1.5 = ++) | Fc1ccc(CNc2cccc(NCc3ccc(F)cc3Cl)c2)c(Cl)c1 [Compound 37, N,N′-bis-(2-chloro-4-fluorobenzyl)-benzene-1,3-diamine] |
